Consider one sequence from US20210113685A1, “POLYPEPTIDE DRUG AGAINST HEPATITIS B VIRUS PROTEIN” (priority 2011, published 2021).

Where no end group is shown, it is not given here.

Series [1] deals with NF-κB promoter (HBx-activated). In words: Dual-luciferase reporter gene analysis (pGL3-NF-κB). The class given is cell-based. To be noted: incubation with synthesized polypeptide 0.1-100 μM, 24 hr. The source says:
Two cell lines were adopted in the experiment. One is constitutive expression HBx of hepatoma cell HepG2 (stable transfected hepatoma cell HepG2 expressing HBx), and the other one is constitutive expression Hepatitis B virus complete genome of hepatoma cell HepG2.2.15 (stable transfected hepatoma cell HepG2 expressing HBV complete genome). Because HBx functions to activate the transcription factor NF-κB, it is possible to detect the inhibition of HBx at the molecular level by reporter gene-based assays. Due to the role of HBx on promoting the growth and proliferation of hepatoma cells, it can test the effects of the polypeptides on the proliferation of HepG2-X cell and HepG2.2.15 cell by (3-(4,5-dimethylthiazol-2-yl)-2,5-diphenyltetrazolium bromide (MTT).
(1) Plated the cells at exponential phase (the cells in the above Table 1) at a density 0.75×10^5 cells/ml in a 24-well plate with 500 μl per well. Ideally cells should be 90% confluent prior to transfection;
(2) Reporter gene vectors containing promoter (pGL3-NF-κB, 0.3 μg, purchased from Yuanhaoping (Tianjin) Biological Technology Co., Ltd) were transfected into cells by using lipofectamine transfection reagent, and Renilla luciferase expressing vectors (pRL-TK, 0.1 μg, purchased from Promega) were transfected as controls. Simultaneously, different amount of polypeptides plasmids from Step A (0.25 μg, 0.5 μg and 0.75 μg) or different concentrations of synthesized polypeptides from Example 1 (0.1 μM, 1 μM, 10 μM and 100 μM) were added, and repeated each concentration in three wells;
(3) After transfection for 48 hr (or after incubation with artificial synthesized polypeptide Anti-HBxP1 # for 24 hr), washed the cells with PBS for three times;
(4) Added 100 μl 1× Passive Lysis Buffer (PLB) into transfected cells per well, and lysed the cell at room temperature for 15 min. Transferred the cell lysate to a 1.5 ml Eppendorf (EP) tube;
(5) Centrifuged at 12,000 rpm for 30 min, and transferred the supernatant to a fresh EP tube;
(6) Added an aliquot of cell lysate into each EP tube with 100 μl Luciferase Assay Buffer II (LARII), and mixed well;
(7) Immediately put the EP tubes into a Luminometer (manufactured by Turner Biosystems). Within 10 sec after 2 sec balance, measured the luminescence.
(8) Added 100 μl fluorescence bleacher. Firefly luciferase was quenched, while Renilla luciferase started to react.
(9) Measured the luminescence within 10 sec.
The relative activity was the ratio of the value of the first luminescence to the value of the second luminescence.
Results shown are representative of three independent experiments according to Mean±SD, and statistical significance was calculated using Student's t test.
(A reporter such as luciferase makes a cellular process visible.)

In series [2] the test system is HepG2-X cells. The experiment in a line: MTT assay, HepG2-X cells. The series is classed as cell-based. To be noted: synthesized polypeptide 0.1-100 μM, 48 hr. The source says: (§1) Two cell lines were adopted in the experiment. One is constitutive expression HBx of hepatoma cell HepG2 (stable transfected hepatoma cell HepG2 expressing HBx), and the other one is constitutive expression Hepatitis B virus complete genome of hepatoma cell HepG2.2.15 (stable transfected hepatoma cell HepG2 expressing HBV complete genome). Because HBx functions to activate the transcription factor NF-κB, it is possible to detect the inhibition of HBx at the molecular level by reporter gene-based assays. […]
(§2) (1) Plate the cells: suspended the cells at exponential phase (the cells in the above Table 1) in RPMI1640 or DMEM medium with 10% FBS, and plated 4000-5000 cells in a 96-well plate with 100 μl per well; Culture the cells: Within 12 hr for adhesion of cultured cells, different amount of polypeptides plasmids from Step A (0.25 μg, 0.5 μg and 0.75 μg) or different concentrations of synthesized polypeptides from Example 1 (0.1 μM, 1 μM, 10 μM and 100 μM) were transfected with 8 wells for each concentration, and were incubated for 48 hr in the same condition. 0.3 μg pEGFP-C2 plasmids and 1 μg p-Anti-HBxP1 # were cotransfected, and using a fluorescence microscope to check for cells containing the GFP plasmid after 24 hr to make sure the percentage of cells that contain GFP is over 70%; […]
(§3) (4) Comparison: Read in an ELISA reader at 490 nm to measure the absorbance for each well. […]

Another series concerns L-O2-X cells. The experiment in a line: MTT assay, L-O2-X cells. To be noted: synthesized polypeptide 0.1-100 μM, 48 hr. The series is classed as cell-based. The protocol: (§4) (1) Plate the cells: suspended the cells at exponential phase (the cells in the above Table 1) in RPMI1640 or DMEM medium with 10% FBS, and plated 4000-5000 cells in a 96-well plate with 100 μl per well; Culture the cells: Within 12 hr for adhesion of cultured cells, different amount of polypeptides plasmids from Step A (0.25 μg, 0.5 μg and 0.75 μg) or different concentrations of synthesized polypeptides from Example 1 (0.1 μM, 1 μM, 10 μM and 100 μM) were transfected with 8 wells for each concentration, and were incubated for 48 hr in the same condition. 0.3 μg pEGFP-C2 plasmids and 1 μg p-Anti-HBxP1 # were cotransfected, and using a fluorescence microscope to check for cells containing the GFP plasmid after 24 hr to make sure the percentage of cells that contain GFP is over 70%;
(§5) (2) Coloration: added 20 μl MTT solution (5 mg/ml MTT in PBS buffer (pH7.4)) for each well;
(§6) (3) Incubated for 4 hr, and carefully aspirate off the supernatant from the wells. Added 150 μl DMSO into each well, shaking for 10 min until the crystals dissolved;
(§7) (4) Comparison: Read in an ELISA reader at 490 nm to measure the absorbance for each well. Results were calculated by using Student's t-test.
A general note: Tetrazolium assays rely on reduction of a dye to a coloured formazan, in cell work by metabolically active cells.

The subject of series [3] is HepG2.2.15 cells. The experiment in a line: MTT assay, HepG2.2.15 cells. The series is classed as cell-based. The note with it: synthesized polypeptide 0.1-100 μM, 48 hr.
From the text: as §1, §2, §3

For the next series, the system named is HepG2. In words: MTT assay, HepG2 cells. The series is classed as cell-based. The note with it: HepG2 (no HBx); synthesized polypeptide 0.1-100 μM, 48 hr. On the procedure:
as §4, §5, §6, §7

The next series relates to L-O2. In words: MTT assay, L-O2 cells. The class given is cell-based. The note with it: L-O2 (no HBx); synthesized polypeptide 0.1-100 μM, 48 hr. The protocol:
as §4, §5, §6, §7

Series [4] relates to HepG2-X cells. In words: Inoculation experiment in nude mice, HepG2-X cells. The series is classed as in vivo. The protocol: (§8) Suspended the HepG2-X or HepG2.2.15 cells at exponential phase by treating with trypsin, and counted the number of cells to dilute to 1×10^7 cells/ml with physiological saline, and then store in the ice water. 12 Mice used were 4- to 6-week-old BALB/C females, and were randomly divided into two groups: @Control group, injected 0.2 ml diluted cells to the armpit of left forelimb for each mouse, and only injected 0.5 ml ddH2O (without polypeptide drugs); 0 experimental group (the treatment dose was 10 mg/kg), injected 0.2 ml diluted cells to the armpit of left forelimb for each mouse, and within 7 days after the injection, tumor volume (V=L×W^2×0.5) reached to 100 mm^3. And then, injected the above mentioned polypeptide drugs (dried polypeptide drug solved in 0.5 ml ddH2O) once in two day, total 10 times, and recorded the tumor volume before injection. Within 24 hr after the last dose, weighted the mice, and killed the mice to weight the tumor tissue, anti-tumor rate was calculated as follow: […]

For series [5], the system named is HepG2.2.15 cells. In words: Inoculation experiment in nude mice, HepG2.2.15 cells. The class given is in vivo. On the procedure: as §8
The nature of series [6]: Polypeptide drugs acute toxicity test. To be noted: 1 g/kg tail intravenous injection; observed 24 hr. The class given is in vivo, Kunming white mice. On the procedure:
Control group and experimental group contained 10 Kunming white mice, with 5 females and 5 males, respectively. Experimental group injected Anti-HBxP1 # with the concentration of 1 g/kg ([…] dried polypeptide drug solved in 0.124 ml ddH2O) by tail intravenous injection; control group, injected 0.25 ml ddH2O. Consecutively observed the mice for 24 hr after injection.

For GSAVMFSSKERG [Anti-HBxP1 #], the “activity of NF-κB promoter” value in series [1] (HepG2 (no HBx)) is given as “no effect”; in series [1] (HepG2-X cells), “inhibits”; in series [1] (HepG2.2.15 cells), “inhibits”; in series [1] (L-O2 (no HBx)), “no effect”; in series [1] (L-O2-X cells) it was “inhibits”. Besides, the “growth of the hepatoma cells (MTT assay)” value is reported as “inhibits” with HepG2-X cells [2]; “inhibits” with L-O2-X cells; “inhibits” with HepG2.2.15 cells [3]; “no effect” in the series on HepG2; “no effect” in the series on L-O2. Moreover, in the series on HepG2-X cells [4] (10 mg/kg, P<0.01), the “growth and proliferation of HepG2-X cells in nude mice” value is given as “inhibits”. Further, the “Anti-tumor rate (%)” value was found to be 60.22% in the series on HepG2-X cells [4] (HepG2-X tumor, 10 mg/kg once in two day, 10 times) and 41.27% with HepG2.2.15 cells [5] (HepG2.2.15 tumor, 10 mg/kg once in two day, 10 times). Further, the “Tumor weight (X ± S, g)” value was determined as 0.37 ± 0.14 g with HepG2-X cells [4] (HepG2-X tumor, 10 mg/kg once in two day, 10 times, within 24 hr after last dose) and 0.37 ± 0.19 g in the series on HepG2.2.15 cells [5] (HepG2.2.15 tumor, 10 mg/kg once in two day, 10 times, within 24 hr after last dose). For the same sequence, the “Weight (X ± S, g) After dose” value with HepG2-X cells [4] (mouse body weight after 10 mg/kg once in two day, 10 times, HepG2-X tumor) came out at 21.08 ± 0.74 g; in the series with HepG2.2.15 cells [5] (mouse body weight after 10 mg/kg once in two day, 10 times, HepG2.2.15 tumor) it was 21.08 ± 0.81 g. Also, the “Weight (X ± S, g) Before dose” value with HepG2-X cells [4] (mouse body weight before dose, HepG2-X tumor, experimental group) is 15.75 ± 0.99 g; in the series with HepG2.2.15 cells [5] (mouse body weight before dose, HepG2.2.15 tumor, experimental group), 15.17 ± 1.17 g. For the same sequence, in the series on HepG2.2.15 cells [5] (10 mg/kg, P<0.01), the “growth and proliferation of HepG2.2.15 cells in nude mice” value was “inhibits”. In addition, the “behaviors of mice (acute toxicity)” value in series [6] was “do not have abnormal behaviors”. For the same sequence, in series [6], the “changes in weight compared with control group (acute toxicity)” value was “no abnormal changes in weight”.
